Here are results for two compounds from article PMC12169613 (Journal of Medicinal Chemistry, 2025).

The target in one experiment is Nluc-GPR1 (Homo sapiens, UniProt P46091). Put plainly: cell-based. The protocol:
After overnight incubation at standard conditions, 75,000 cells/well were seeded into a black, solid 96-well plate using phenol red-free culture medium. […] (positive control) was added to the cells. […] The readout was performed directly in a microplate reader (Tecan Spark) with a filter for fluorescence (λem = 550–700 nm) and bioluminescence (λem = 430–470 nm). Data studies were performed as mentioned for arr-3 BRET.

For the next experiment, the target named is human Y1 receptor (hY1R) (Homo sapiens, UniProt P25929).
Sequence of human Y1 receptor (hY1R) (P25929 whole entry): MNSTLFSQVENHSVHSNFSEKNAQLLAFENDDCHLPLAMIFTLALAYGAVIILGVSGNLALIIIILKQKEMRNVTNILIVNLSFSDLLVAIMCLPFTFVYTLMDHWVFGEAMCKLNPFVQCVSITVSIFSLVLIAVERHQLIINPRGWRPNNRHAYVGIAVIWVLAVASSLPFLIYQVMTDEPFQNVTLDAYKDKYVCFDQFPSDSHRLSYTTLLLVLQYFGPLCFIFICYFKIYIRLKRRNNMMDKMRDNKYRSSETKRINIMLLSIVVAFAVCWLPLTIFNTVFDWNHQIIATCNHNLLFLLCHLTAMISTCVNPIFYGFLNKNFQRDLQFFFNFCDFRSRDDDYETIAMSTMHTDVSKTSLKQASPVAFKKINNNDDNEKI
The target in experiment [1] is CMKLR1 (Homo sapiens, UniProt Q99788). The text has this: Data are presented as mean±SEM.
Sequence of CMKLR1 (Homo sapiens, UniProt Q99788) (Q99788 3-373): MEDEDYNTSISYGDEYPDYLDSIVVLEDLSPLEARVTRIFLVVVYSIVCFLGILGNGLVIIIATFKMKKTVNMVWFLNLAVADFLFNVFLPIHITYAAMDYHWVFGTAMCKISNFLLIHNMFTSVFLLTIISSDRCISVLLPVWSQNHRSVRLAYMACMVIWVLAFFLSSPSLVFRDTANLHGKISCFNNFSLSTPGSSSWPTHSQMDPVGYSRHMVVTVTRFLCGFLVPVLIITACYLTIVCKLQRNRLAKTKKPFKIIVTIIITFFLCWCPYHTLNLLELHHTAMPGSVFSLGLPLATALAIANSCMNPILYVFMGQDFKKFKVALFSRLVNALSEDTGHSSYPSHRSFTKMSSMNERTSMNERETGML
(2 pictures or pasted objects on this page, not shown here)

Experiment [2] concerns CMKLR1. The settings on record: cited from earlier work.

Read-outs that look alike come from different tables or passages of the source. Bounds are passed on as bounds.

Sequence of Nluc-GPR1 (P46091 whole entry): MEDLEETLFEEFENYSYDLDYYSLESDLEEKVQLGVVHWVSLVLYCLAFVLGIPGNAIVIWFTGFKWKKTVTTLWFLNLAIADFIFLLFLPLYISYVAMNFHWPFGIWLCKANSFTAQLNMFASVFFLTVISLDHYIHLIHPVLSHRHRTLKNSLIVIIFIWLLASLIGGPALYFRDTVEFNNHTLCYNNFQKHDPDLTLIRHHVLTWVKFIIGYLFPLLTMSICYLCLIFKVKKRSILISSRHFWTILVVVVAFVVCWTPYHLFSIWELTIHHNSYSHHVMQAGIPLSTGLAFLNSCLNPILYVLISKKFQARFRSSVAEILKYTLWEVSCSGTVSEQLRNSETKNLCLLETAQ

In general, Ki refers to a measure of affinity in units of concentration, obtained from inhibition or displacement. In the case of `COc1ccc(C)cc1NC(=O)CSc1nc(=O)c(S(=O)(=O)c2ccc(C)c(Cl)c2)c[nH]1` [Compound 1, 2-{[5-(3-Chloro-4-methylbenzenesulfonyl)-4-oxo-1,4-dihydropyrimidin-2-yl]sulfanyl}-N-(2-methoxy-5-methyl-phenyl)acetamide], the Ki on Nluc-GPR1 was more than 1 µM; on Nluc-GPR1 (read-out: Nluc-GPR1 Ki), 1.32 µM. For the same compound, the “effect at hY1R (in words)” value at human Y1 receptor (hY1R) is “no effect”.

The term IC50 denotes the concentration at which inhibition is half-maximal. With `C[N+](C)(C)CCC(=O)c1cccc2ccccc12.[I-]` [α-NETA, 2-(α-naphthoyl)-ethyl-trimethylammonium iodide], the “influence on CMKLR1 G protein signaling (in words)” value on CMKLR1 [1] is “No influence”. In the experiment on CMKLR1 [2], the IC50 is 0.38 µM.
